What was measured:
Assay in all cases: relative viability (nuclei count vs DMSO), 5 days (fraction); higher = more cells survive
A549 = tested on: A549
Method in brief: (§1)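 Relative viability equals treated-well nuclei counts divided by vehicle-well nuclei counts. Counts came from 4× images of lung cancer cell lines grown in 1536-well plates for 5 days after pin-tool dosing on the day after seeding. Dosing used one drug alone or a fixed anchor-drug dose plus five library-drug doses (not always all listed) in √10 steps, and values are medians of duplicate plates.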

Calu-6 = tested on: Calu-6
Method in brief: as §1

EBC-1 = tested on: EBC-1
Method in brief: as §1

EMC-BAC-2 = tested on: EMC-BAC-2
Method in brief: as §1

HCC-366 = tested on: HCC-366
Method in brief: as §1

HCC-78 = tested on: HCC-78
Method in brief: as §1

IA-LM = tested on: IA-LM
Method in brief: as §1

LCLC-97TM1 = tested on: LCLC-97TM1
Method in brief: as §1

NCI-H1299 = tested on: NCI-H1299
Method in brief: as §1

NCI-H1395 = tested on: NCI-H1395
Method in brief: as §1

NCI-H1703 = tested on: NCI-H1703
Method in brief: as §1

Structure (SMILES): Cc1csc(=NC2CCCCC2)n1/N=C/c1ccc(O)c(O)c1O [MIM1] + CC1(C)CCC(c2ccc(Cl)cc2)=C(CN2CCN(c3ccc(C(=O)NS(=O)(=O)c4ccc(N[C@H](CCN5CCOCC5)CSc5ccccc5)c(S(=O)(=O)C(F)(F)F)c4)cc3)CC2)C1 [Navitoclax] (partner 0.5 µM)
- relative viability (A549; first compound 0.2 µM): 1.17
- relative viability (A549; first compound 0.6325 µM): 1.24
- relative viability (A549; first compound 2 µM): 1.3
- relative viability (A549; first compound 6.325 µM): 0.843
- relative viability (A549; first compound 20 µM): 0.0781
- relative viability (Calu-6; first compound 0.2 µM): 0.772
- relative viability (Calu-6; first compound 0.6325 µM): 0.93
- relative viability (Calu-6; first compound 2 µM): 0.857
- relative viability (Calu-6; first compound 6.325 µM): 0.205
- relative viability (Calu-6; first compound 20 µM): 0.135
- relative viability (EBC-1; first compound 0.2 µM): 0.417
- relative viability (EBC-1; first compound 0.6325 µM): 0.475
- relative viability (EBC-1; first compound 2 µM): 0.367
- relative viability (EBC-1; first compound 6.325 µM): 0.227
- relative viability (EBC-1; first compound 20 µM): 0.166
- relative viability (EMC-BAC-2; first compound 0.2 µM): 1.11
- relative viability (EMC-BAC-2; first compound 0.6325 µM): 1.13
- relative viability (EMC-BAC-2; first compound 2 µM): 1.27
- relative viability (EMC-BAC-2; first compound 6.325 µM): 1.05
- relative viability (EMC-BAC-2; first compound 20 µM): 0.274
- relative viability (HCC-366; first compound 0.2 µM): 1.06
- relative viability (HCC-366; first compound 0.6325 µM): 0.943
- relative viability (HCC-366; first compound 2 µM): 0.809
- relative viability (HCC-366; first compound 6.325 µM): 1
- relative viability (HCC-366; first compound 20 µM): 0.0645
- relative viability (HCC-78; first compound 0.2 µM): 0.899
- relative viability (HCC-78; first compound 0.6325 µM): 0.731
- relative viability (HCC-78; first compound 2 µM): 0.668
- relative viability (HCC-78; first compound 6.325 µM): 0.562
- relative viability (HCC-78; first compound 20 µM): 0.739
- relative viability (IA-LM; first compound 0.2 µM): 0.588
- relative viability (IA-LM; first compound 0.6325 µM): 0.713
- relative viability (IA-LM; first compound 2 µM): 0.721
- relative viability (IA-LM; first compound 6.325 µM): 0.195
- relative viability (IA-LM; first compound 20 µM): 0.0808
- relative viability (LCLC-97TM1; first compound 0.2 µM): 0.567
- relative viability (LCLC-97TM1; first compound 0.6325 µM): 0.398
- relative viability (LCLC-97TM1; first compound 2 µM): 0.397
- relative viability (LCLC-97TM1; first compound 6.325 µM): 0.48
- relative viability (LCLC-97TM1; first compound 20 µM): 0.203
- relative viability (NCI-H1299; first compound 0.2 µM): 1.06
- relative viability (NCI-H1299; first compound 0.6325 µM): 1.07
- relative viability (NCI-H1299; first compound 2 µM): 1.04
- relative viability (NCI-H1299; first compound 6.325 µM): 1.05
- relative viability (NCI-H1299; first compound 20 µM): 0.974
- relative viability (NCI-H1395; first compound 0.2 µM): 1.06
- relative viability (NCI-H1395; first compound 0.6325 µM): 1.1
- relative viability (NCI-H1395; first compound 2 µM): 1.63
- relative viability (NCI-H1395; first compound 6.325 µM): 0.646
- relative viability (NCI-H1395; first compound 20 µM): 0.425
- relative viability (NCI-H1703; first compound 0.2 µM): 0.91
- relative viability (NCI-H1703; first compound 0.6325 µM): 1.15
- relative viability (NCI-H1703; first compound 2 µM): 1.03
- relative viability (NCI-H1703; first compound 6.325 µM): 0.135
- relative viability (NCI-H1703; first compound 20 µM): 0.117

Structure (SMILES): CN1CCN(CCOc2cc(OC3CCOCC3)c3c(Nc4c(Cl)ccc5c4OCO5)ncnc3c2)CC1 [Saracatinib] + C[C@@H](Oc1cc(-c2cnn(C3CCNCC3)c2)cnc1N)c1c(Cl)ccc(F)c1Cl [Crizotinib] (partner 1 µM)
- relative viability (A549; first compound 0.02 µM): 0.74
- relative viability (A549; first compound 0.2 µM): 0.738
- relative viability (A549; first compound 0.6325 µM): 0.649
- relative viability (A549; first compound 2 µM): 0.549
- relative viability (Calu-6; first compound 0.02 µM): 0.769
- relative viability (Calu-6; first compound 0.2 µM): 0.594
- relative viability (Calu-6; first compound 0.6325 µM): 0.662
- relative viability (Calu-6; first compound 2 µM): 0.526
- relative viability (EBC-1; first compound 0.02 µM): 0.174
- relative viability (EBC-1; first compound 0.2 µM): 0.198
- relative viability (EBC-1; first compound 0.6325 µM): 0.188
- relative viability (EBC-1; first compound 2 µM): 0.181
- relative viability (EMC-BAC-2; first compound 0.02 µM): 0.701
- relative viability (EMC-BAC-2; first compound 0.2 µM): 0.72
- relative viability (EMC-BAC-2; first compound 0.6325 µM): 0.652
- relative viability (EMC-BAC-2; first compound 2 µM): 0.463
- relative viability (HCC-366; first compound 0.02 µM): 0.547
- relative viability (HCC-366; first compound 0.6325 µM): 0.435
- relative viability (HCC-366; first compound 2 µM): 0.182
- relative viability (HCC-78; first compound 0.02 µM): 0.355
- relative viability (HCC-78; first compound 0.2 µM): 0.315
- relative viability (HCC-78; first compound 0.6325 µM): 0.317
- relative viability (HCC-78; first compound 2 µM): 0.207
- relative viability (IA-LM; first compound 0.02 µM): 1.07
- relative viability (IA-LM; first compound 0.2 µM): 1.08
- relative viability (IA-LM; first compound 0.6325 µM): 1.24
- relative viability (IA-LM; first compound 2 µM): 0.738
- relative viability (LCLC-97TM1; first compound 0.02 µM): 0.416
- relative viability (LCLC-97TM1; first compound 0.2 µM): 0.268
- relative viability (LCLC-97TM1; first compound 0.6325 µM): 0.457
- relative viability (LCLC-97TM1; first compound 2 µM): 0.316
- relative viability (NCI-H1299; first compound 0.02 µM): 0.942
- relative viability (NCI-H1299; first compound 0.2 µM): 0.948
- relative viability (NCI-H1299; first compound 0.6325 µM): 0.985
- relative viability (NCI-H1299; first compound 2 µM): 0.781
- relative viability (NCI-H1703; first compound 0.02 µM): 0.553
- relative viability (NCI-H1703; first compound 0.2 µM): 0.633
- relative viability (NCI-H1703; first compound 0.6325 µM): 0.23
- relative viability (NCI-H1703; first compound 2 µM): 0.0951

Source: the supplement of paper PMC10307832
